Experimental data from patent publication US10457679B2, “Imidazo[4,5-c]quinolin-2-one compounds and their use in treating cancer” (AstraZeneca AB, priority 2015, dated 2019).
Where two headings read alike, the source gives them in different places.

Columns and labels:
Assay type in all cases: cell-based
ATM kinase = molecular target: T1, ATM kinase (Homo sapiens, UniProt Q13315); experiment: Assay a) ATM cellular potency (pATM Ser1981 in X-ray irradiated HT29 cells); details: HT29 cells, 1 h compound, X-ray ~600 cGy, pATM Ser1981; may be geometric mean of several tests; read-out: Assay a) ATM Cell IC50
T1 construct: endogenous in cells; host or cells: HT29 cells (ECACC #85061109)
T1 sequence (Q13315 whole entry): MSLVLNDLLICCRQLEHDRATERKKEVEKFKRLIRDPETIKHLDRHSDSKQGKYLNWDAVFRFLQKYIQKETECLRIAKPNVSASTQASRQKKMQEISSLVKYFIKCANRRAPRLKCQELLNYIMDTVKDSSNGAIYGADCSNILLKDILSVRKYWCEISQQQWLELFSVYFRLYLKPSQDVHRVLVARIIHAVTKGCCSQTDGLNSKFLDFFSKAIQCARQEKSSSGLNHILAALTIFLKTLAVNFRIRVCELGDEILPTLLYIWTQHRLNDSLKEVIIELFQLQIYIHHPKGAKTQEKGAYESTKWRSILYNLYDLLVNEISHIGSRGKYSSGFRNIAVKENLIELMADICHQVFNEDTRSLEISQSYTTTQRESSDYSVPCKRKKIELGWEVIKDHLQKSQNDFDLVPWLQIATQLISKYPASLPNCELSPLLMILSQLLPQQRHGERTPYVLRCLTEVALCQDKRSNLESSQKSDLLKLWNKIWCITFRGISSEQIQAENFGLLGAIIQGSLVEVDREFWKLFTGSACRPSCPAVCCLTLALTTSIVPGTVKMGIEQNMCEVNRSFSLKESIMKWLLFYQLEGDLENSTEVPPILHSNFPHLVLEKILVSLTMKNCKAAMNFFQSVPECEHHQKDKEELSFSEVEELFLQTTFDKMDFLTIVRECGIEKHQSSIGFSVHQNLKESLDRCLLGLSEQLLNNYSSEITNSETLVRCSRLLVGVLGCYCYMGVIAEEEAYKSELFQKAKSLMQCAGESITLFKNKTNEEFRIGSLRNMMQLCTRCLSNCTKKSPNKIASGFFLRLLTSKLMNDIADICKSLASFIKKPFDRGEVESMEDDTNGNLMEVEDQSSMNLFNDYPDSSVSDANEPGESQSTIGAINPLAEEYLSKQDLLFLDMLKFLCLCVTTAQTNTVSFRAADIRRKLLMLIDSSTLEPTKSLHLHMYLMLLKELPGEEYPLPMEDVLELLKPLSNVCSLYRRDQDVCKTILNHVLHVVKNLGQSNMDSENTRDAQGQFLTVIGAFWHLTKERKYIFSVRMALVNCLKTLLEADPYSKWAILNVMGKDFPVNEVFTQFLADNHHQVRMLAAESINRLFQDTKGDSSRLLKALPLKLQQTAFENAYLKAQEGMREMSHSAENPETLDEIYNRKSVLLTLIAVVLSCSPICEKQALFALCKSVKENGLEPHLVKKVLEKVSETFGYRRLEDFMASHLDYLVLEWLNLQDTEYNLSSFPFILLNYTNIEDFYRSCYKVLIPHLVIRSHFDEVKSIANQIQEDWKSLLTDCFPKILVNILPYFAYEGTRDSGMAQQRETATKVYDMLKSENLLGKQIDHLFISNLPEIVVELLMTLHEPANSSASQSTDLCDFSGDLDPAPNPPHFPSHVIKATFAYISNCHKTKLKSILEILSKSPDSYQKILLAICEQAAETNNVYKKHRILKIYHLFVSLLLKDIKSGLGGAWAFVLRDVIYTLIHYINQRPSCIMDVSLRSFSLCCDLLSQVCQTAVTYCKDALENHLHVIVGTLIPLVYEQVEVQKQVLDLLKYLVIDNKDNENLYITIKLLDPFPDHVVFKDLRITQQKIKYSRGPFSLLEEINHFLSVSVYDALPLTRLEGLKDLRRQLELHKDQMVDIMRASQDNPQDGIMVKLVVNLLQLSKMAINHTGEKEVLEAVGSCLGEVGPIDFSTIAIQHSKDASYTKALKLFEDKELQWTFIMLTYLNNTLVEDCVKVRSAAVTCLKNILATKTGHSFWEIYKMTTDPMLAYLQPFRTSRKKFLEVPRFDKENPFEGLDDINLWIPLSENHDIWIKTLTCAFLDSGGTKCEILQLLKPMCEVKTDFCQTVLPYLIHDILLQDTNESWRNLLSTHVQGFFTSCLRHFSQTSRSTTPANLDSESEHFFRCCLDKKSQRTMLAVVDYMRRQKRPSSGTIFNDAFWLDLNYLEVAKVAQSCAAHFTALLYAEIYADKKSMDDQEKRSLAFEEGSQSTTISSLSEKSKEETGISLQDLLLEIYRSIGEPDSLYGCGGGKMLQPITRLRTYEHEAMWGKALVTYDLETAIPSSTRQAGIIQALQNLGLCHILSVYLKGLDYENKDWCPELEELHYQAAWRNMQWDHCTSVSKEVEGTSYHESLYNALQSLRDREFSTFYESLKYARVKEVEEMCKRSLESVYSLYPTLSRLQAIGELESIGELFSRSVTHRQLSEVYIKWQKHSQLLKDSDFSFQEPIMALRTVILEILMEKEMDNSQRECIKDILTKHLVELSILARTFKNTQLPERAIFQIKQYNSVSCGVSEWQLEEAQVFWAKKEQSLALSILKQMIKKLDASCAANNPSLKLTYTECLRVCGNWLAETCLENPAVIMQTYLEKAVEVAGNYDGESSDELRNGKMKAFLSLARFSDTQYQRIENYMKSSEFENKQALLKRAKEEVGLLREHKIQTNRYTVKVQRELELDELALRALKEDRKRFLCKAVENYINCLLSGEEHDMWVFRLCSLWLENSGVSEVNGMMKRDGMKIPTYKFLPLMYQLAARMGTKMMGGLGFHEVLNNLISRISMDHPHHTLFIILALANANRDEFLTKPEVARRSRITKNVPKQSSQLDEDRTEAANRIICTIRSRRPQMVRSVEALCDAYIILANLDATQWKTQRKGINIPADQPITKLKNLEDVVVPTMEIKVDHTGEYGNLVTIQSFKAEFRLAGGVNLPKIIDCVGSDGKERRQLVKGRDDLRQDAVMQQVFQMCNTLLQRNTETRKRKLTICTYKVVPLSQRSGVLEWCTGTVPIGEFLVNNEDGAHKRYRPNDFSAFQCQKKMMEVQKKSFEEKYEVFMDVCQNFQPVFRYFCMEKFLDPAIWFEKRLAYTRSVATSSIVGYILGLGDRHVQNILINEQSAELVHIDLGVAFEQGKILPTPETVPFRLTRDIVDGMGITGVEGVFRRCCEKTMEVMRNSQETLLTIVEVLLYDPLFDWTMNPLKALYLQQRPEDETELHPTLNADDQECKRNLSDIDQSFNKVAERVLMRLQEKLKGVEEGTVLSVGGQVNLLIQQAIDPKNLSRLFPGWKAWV
Method: The following assays were used to measure the effects of the compounds of the present invention: a) ATM cellular potency assay; b) PI3K cellular potency assay; c) mTOR cellular potency assay; d) ATR cellular potency assay. During the description of the assays, generally: • i. […] IC50 values were calculated using a smart fitting model in Genedata. […] Assay a): ATM Cellular Potency Rationale:
Most ATM molecules in the cell are rapidly phosphorylated on this site after doses of radiation as low as 0.5 Gy, and binding of a phosphospecific antibody is detectable after the introduction of only a few DNA double-strand breaks in the cell.
The rationale of the pATM assay is to identify inhibitors of ATM in cells. HT29 cells are incubated with test compounds for 1 hr prior to X-ray-irradiation. 1 h later the cells are fixed and stained for pATM (Ser1981). The fluorescence is read on the arrayscan imaging platform.
The following morning compounds of Formula (I) in 100% DMSO were added to assay plates by acoustic dispensing. After 1 h incubation at 37° C. and 5% CO2, plates (up to 6 at a time) were irradiated using the X-RAD 320 instrument (PXi) with equivalent to ˜600 cGy. Plates were returned to the incubator for a further 1 h. […] Then 20 μl of 0.1% Triton X100 in PBS was added and incubated for 20 minutes at r.t., to permeabalise cells. Then the plates were washed once with 50 μl/well PBS, using a Biotek EL405 plate washer.
After 1 h incubation at r.t., the plates were washed three times with 50 μl/well PBS, using a Biotek EL405 plate washer, and plates were sealed and kept in PBS at 4° C. until read. Plates were read using an ArrayScan VTI instrument, using an XF53 filter with 10× objective.

ATR kinase = molecular target: T2, ATR kinase (Homo sapiens, UniProt Q13535); experiment: Assay b) ATR cellular potency (pChk1 Ser345 in HT29 cells after 4NQO); details: HT29 cells, 4NQO, pChk1 Ser345; may be geometric mean of several tests; read-out: Assay b) ATR Cell IC50
T2 construct: measuring a decrease in phosphorylation of Chk1 (Ser 345) in HT29 cells; endogenous in cells; host or cells: HT29 cells (ECACC #85061109)
Description: Assay b): ATR Cellular Potency
ATR is a PI 3-kinase-related kinase which phosphorylates multiple substrates on serine or threonine residues in response to DNA damage during or replication blocks. Chk1, a downstream protein kinase of ATR, plays a key role in DNA damage checkpoint control. Activation of Chk1 involves phosphorylation of Ser317 and Ser345 (the latter regarded as the preferential target for phosphorylation/activation by ATR).
The following morning compound of Formula (I) in 100% DMSO were added to assay plates by acoustic dispensing. After 1 h incubation at 37° C. and 5% CO2. 40 nl of 3 mM 4NQO in 100% DMSO was added to all wells by acoustic dispensing, except minimum control wells which were left untreated with 4NQO to generate a null response control. Plates were returned to the incubator for a further 1 h. […] Then 20 μl of 0.1% Triton X100 in PBS was added and incubated for 10 minutes at r.t., to permeabalise cells. Then the plates were washed once with 50 μl/well PBS, using a Biotek EL405 plate washer.
After 2 h incubation at r.t., the plates were washed three times with 50 μl/well PBS, using a Biotek EL405 plate washer, and plates were then sealed with black plate seals until read. Plates were read using an ArrayScan VTI instrument, using an XF53 filter with 10× objective.

mTOR = molecular target: T3, mTOR (Homo sapiens, UniProt P42345); experiment: Assay d) mTOR cellular potency (phospho-AKT Ser473 in MDA-MB-468 cells)
T3 construct: endogenous in cells; host or cells: MDA-MB-468 cells (ATCC HTB 132)
Method: Assay d): mTOR Cellular Potency
This assay was used to measure mTOR inhibition in cells. The aim of the phospho-AKT cell based mechanism of action assay using the Acumen Explorer is to identify inhibitors of either PI3Kα or mTOR-Rictor (Rapamycin insensitive companion of mTOR). This is measured by any decrease in the phosphorylation of the Akt protein at Ser473 (AKT lies downstream of PI3Kα in the signal transduction pathway) in the MDA-MB-468 cells following treatment with compound. Method Details:
MDA-MB-468 cells (human breast adenocarcinoma #ATCC HTB 132) were seeded at 1500 cells/well in 40 μl of DMEM containing 10% FBS and 1% glutamine into Greiner 384 well black flat-bottomed plates. Cell plates were incubated for 18 h in a 37° C. incubator before dosing with compounds of Formula (I) in 100% DMSO using acoustic dispensing. Compounds were dosed in a 12 point concentration range into a randomised plate map. Control wells were generated either by dosing of 100% DMSO (max signal) or addition of a reference compound (a PI3K-β inhibitor) that completely eliminated the pAKT signal (min control). Compounds were then tested by one of two assay protocols A or B:
Plates were incubated at 37° C. for 2 h; cells were then fixed by the addition of 10 μl of a 3.7% formaldehyde solution. After 30 minutes the plates were washed with PBS using a Tecan PW384 plate washer. Wells were blocked and cells permeabilised with the addition of 40 μl of PBS containing 0.5% Tween20 and 1% Marvel™ (dried milk powder) and incubated for 60 minutes at r.t. The plates were washed with PBS containing 0.5% (v/v) Tween20 and 20 μl rabbit anti-phospho AKT Ser473 (Cell Signalling Technologies, #3787) in same PBS-Tween+1% Marvel™ was added and incubated overnight at 4° C.
Plates were washed 3 times with PBS+0.05% Tween 20 using a Tecan PW384. 20 μl of secondary antibody Alexa Fluor 488 anti-Rabbit (Molecular Probes, #A11008) diluted in PBS+0.05% Tween20 containing 1% Marvel™ was added to each well and incubated for 1 h at r.t. Plates were washed three times as before then 20 μl PBS added to each well and plates sealed with a black plate sealer.
The plates were read on an Acumen plate reader as soon as possible, measuring green fluorescence after excitation with 488 nm laser. Using this system IC50 values were generated and quality of plates was determined by control wells. Reference compounds were run each time to monitor assay performance.
The cell plates were then incubated for 2 h at 37° C. before being fixed by the addition of 20 μl 3.7% formaldehyde in PBS/A (1.2% final concentration), followed by a 30 minute room temperature incubation, and then a 2× wash with 150 μl PBS/A using a BioTek ELx406 platewasher. Cells were permeabilised and blocked with 20 μl of assay buffer (0.1% Triton X-100 in PBS/A+1% BSA) for 1 h at room temperature, and then washed 1× with 50 μl PBS/A. Primary phospho-AKT (Ser473) D9E XP® rabbit monoclonal antibody (#4060, Cell Signaling Technology) was diluted 1:200 in assay buffer, 20 μl added per well, and plates were incubated at 4° C. overnight. Cell plates were washed 3× with 200 μl PBS/T, then 20 μl 1:750 dilution in assay buffer of Alexa Fluor® 488 goat anti-rabbit IgG secondary antibody (#A11008, Molecular Probes, Life Technologies), with a 1:5000 dilution of Hoechst 33342, was added per well. Following a 1 h incubation at room temperature, plates were washed 3× with 200 μl PBS/T, and 40 μl PBS w/o Ca, Mg and Na Bicarb (Gibco #14190-094) was added per well.
Stained cell plates were covered with black seals, and then read on the Cell Insight imaging platform (Thermo Scientific), with a 10× objective. The primary channel (Hoechst blue fluorescence 405 nM, BGRFR_386_23) was used to Autofocus and to count number of events (this provided information about cytotoxicity of the compounds tested). The secondary channel (Green 488 nM, BGRFR_485_20) measured pAKT staining. […]

PI3K-α = PI3K-α (Homo sapiens, UniProt P42336); experiment: Assay c) PI3K cellular potency (phospho-Akt T308 ELISA in BT474 cells); details: BT474 cells, 2 h, phospho-AKT T308; may be geometric mean of several tests; read-out: Assay c) PI3Kα Cell IC50
PI3K-α, sequence (P42336 whole entry): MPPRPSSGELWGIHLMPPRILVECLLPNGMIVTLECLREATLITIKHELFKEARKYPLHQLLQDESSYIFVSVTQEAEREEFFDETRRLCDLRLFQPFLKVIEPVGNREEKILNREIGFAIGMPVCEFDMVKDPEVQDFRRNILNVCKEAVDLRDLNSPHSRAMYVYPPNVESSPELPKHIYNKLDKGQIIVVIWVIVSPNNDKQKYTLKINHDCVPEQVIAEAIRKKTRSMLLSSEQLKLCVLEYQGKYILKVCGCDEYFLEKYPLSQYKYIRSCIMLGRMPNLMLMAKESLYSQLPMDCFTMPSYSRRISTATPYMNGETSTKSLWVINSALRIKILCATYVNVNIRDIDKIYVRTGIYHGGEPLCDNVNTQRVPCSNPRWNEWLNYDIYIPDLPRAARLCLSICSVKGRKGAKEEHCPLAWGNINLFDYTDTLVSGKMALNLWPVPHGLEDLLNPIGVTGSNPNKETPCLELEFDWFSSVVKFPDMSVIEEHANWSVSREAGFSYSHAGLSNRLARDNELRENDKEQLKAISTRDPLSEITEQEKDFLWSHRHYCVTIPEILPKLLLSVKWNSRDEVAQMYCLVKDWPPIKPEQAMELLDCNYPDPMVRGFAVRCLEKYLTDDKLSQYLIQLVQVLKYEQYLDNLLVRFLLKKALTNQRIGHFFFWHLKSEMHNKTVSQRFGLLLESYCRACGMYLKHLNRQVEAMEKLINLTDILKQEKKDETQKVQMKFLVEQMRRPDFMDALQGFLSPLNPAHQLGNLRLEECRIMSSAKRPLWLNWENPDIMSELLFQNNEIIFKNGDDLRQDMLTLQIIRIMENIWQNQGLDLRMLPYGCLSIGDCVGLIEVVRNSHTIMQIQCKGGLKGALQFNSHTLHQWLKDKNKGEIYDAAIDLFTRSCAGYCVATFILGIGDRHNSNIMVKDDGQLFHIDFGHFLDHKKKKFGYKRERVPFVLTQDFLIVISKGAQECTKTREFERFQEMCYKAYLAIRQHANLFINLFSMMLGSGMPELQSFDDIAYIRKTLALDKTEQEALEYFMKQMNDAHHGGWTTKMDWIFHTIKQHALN
Description: Assay c): PI3K Cellular Potency
This assay was used to measure PI3K-α inhibition in cells. PDK1 was identified as the upstream activation loop kinase of protein kinase B (Akt 1), which is essential for the activation of PKB. Activation of the lipid kinase phosphoinositide 3 kinase (PI3K) is critical for the activation of PKB by PDK1.
Following ligand stimulation of receptor tyrosine kinases, PI3K is activated, which converts PIP2 to PIP3, which is bound by the PH domain of PDK1 resulting in recruitment of PDK1 to the plasma membrane where it phosphorylates AKT at Thr308 in the activation loop.
The aim of this cell-based mode of action assay is to identify compounds that inhibit PDK activity or recruitment of PDK1 to membrane by inhibiting PI3K activity. Phosphorylation of phospho-Akt (T308) in BT474c cells following treatment with compounds for 2 h is a direct measure of PDK1 and indirect measure of PI3K activity.
BT474 cells (human breast ductal carcinoma, ATCC HTB-20) were seeded into black 384 well plates (Costar, #3712) at a density of 5600 cells/well in DMEM containing 10% FBS and 1% glutamine and allowed to adhere overnight.
The following morning compounds in 100% DMSO were added to assay plates by acoustic dispensing. After a 2 h incubation at 37° C. and 5% CO2, the medium was aspirated and the cells were lysed with a buffer containing 25 mM Tris, 3 mM EDTA, 3 mM EGTA, 50 mM sodium fluoride, 2 mM Sodium orthovanadate, 0.27M sucrose, 10 mM β-glycerophosphate, 5 mM sodium pyrophosphate, 0.5% Triton X-100 and complete protease inhibitor cocktail tablets (Roche #04 693 116 001, used 1 tab per 50 ml lysis buffer).
After 20 minutes, the cell lysates were transferred into ELISA plates (Greiner #781077) which had been pre-coated with an anti total-AKT antibody in PBS buffer and non-specific binding was blocked with 1% BSA in PBS containing 0.05% Tween 20. Plates were incubated over night at 4° C. The next day the plates were washed with PBS buffer containing 0.05% Tween 20 and further incubated with a mouse monoclonal anti-phospho AKT T308 for 2 h. Plates were washed again as above before addition of a horse anti-mouse-HRP conjugated secondary antibody. Following a 2 h incubation at r.t., plates were washed and QuantaBlu substrate working solution (Thermo Scientific #15169, prepared according to provider's instructions) was added to each well. The developed fluorescent product was stopped after 60 minutes by addition of Stop solution to the wells. Plates were read using a Tecan Safire plate reader using 325 nm excitation and 420 nm emission wavelengths respectively. Except where specified, reagents contained in the Path Scan Phospho AKT (Thr308) sandwich ELISA kit from Cell Signalling (#7144) were used in this ELISA assay.

[1] = pAKT Ser473, Protocol B (*); read-out: Assay d) mTOR Cell IC50

Row | Structure (SMILES) | IC50 (ATM kinase) | IC50 (ATR kinase) | IC50 (mTOR; [1]) | IC50 (PI3K-α) | IC50 (mTOR; pAKT Ser473, Protocol A (§); read-out: Assay d) mTOR Cell IC50)
1 | Cn1c(=O)n(C2CC2)c2c3cc(-c4cnc5[nH]ccc5c4)ccc3ncc21 [CN102399218A Compound 62, reference compound] | 135 nM | 55.3 nM | – | – | –
2 | CC(C)n1c(=O)n(C)c2cnc3cc(F)c(-c4ccc(OCCCN(C)C)nc4)cc3c21 [Example 1, 8-[6-[3-(Dimethylamino)propoxy]-3-pyridyl]-7-fluoro-1-isopropyl-3-methyl-imidazo[4,5-c]quinolin-2-one] | – | > 30000 nM | > 30000 nM | 13400 nM | –
3 | CC(C)n1c(=O)n(C)c2cnc3ccc(-c4ccc(OCCCN5CCCCC5)nc4)cc3c21 [Example 5, 1-Isopropyl-3-methyl-8-[6-[3-(l-piperidyl)propoxy]-3-pyridyl]imidazo[4,5-c]quinolin-2-one] | – | – | 6760 nM | 1240 nM | –

The remaining lines, values ahead:

Row | IC50 (ATM kinase) | IC50 (ATR kinase) | IC50 (mTOR; [1]) | IC50 (PI3K-α) | IC50 (mTOR; pAKT Ser473, Protocol A (§); read-out: Assay d) mTOR Cell IC50) | Structure (SMILES)
4 | 4.61 nM | > 30000 nM | > 10000 nM | – | – | CC(C)n1c(=O)[nH]c2cnc3cc(F)c(-c4ccc(OCCCN(C)C)nc4)cc3c21 [Example 17, 8-[6-[3-(Dimethylamino)propoxy]-3-pyridyl]-7-fluoro-1-isopropyl-3H-imidazo[4,5-c]quinolin-2-one]
5 | 2.14 nM | > 30000 nM | > 300 nM | – | – | CC(C)n1c(=O)n(C)c2cnc3ccc(-c4ccc(OCCCN5CCC5)nc4F)cc3c21 [Example 15, 8-[6-[3-(azetidin-1-yl)propoxy]-2-fluoro-3-pyridyl]-1-isopropyl-3-methyl-imidazo[4,5-c]quinolin-2-one]
6 | 2.28 nM | > 30000 nM | – | – | 23600 nM | CC(C)n1c(=O)n(C)c2cnc3cc(F)c(-c4ccc(OCCCN(C)C)nc4F)cc3c21 [Example 11, 8-[6-[3-(dimethylamino)propoxy]-2-fluoro-3-pyridyl]-7-fluoro-1-isopropyl-3-methyl-imidazo[4,5-c]quinolin-2-one]
